Test results reported in patent US20240190872A1, “FABI INHIBITORS FOR GRAM-NEGATIVE PATHOGENS” (THE BOARD OF TRUSTEES OF THE UNIVERSITY OF ILLINOIS, priority 2021, published 2024).
Values after ≈ are worked out from the molar mass of the structure shown. Like-named read-outs stand apart in the source and are kept apart here.

Legend:
[1] = Hepatocyte stability; format: in vitro ADME
[2] = Pharmacokinetic study in neutropenic infected mice
[3] = Hepatocyte stability; format: in vitro ADME; remark: listed apart in the source
[4] = in vitro; conditions: human, plasma
[5] = in vitro; conditions: dog
[6] = Plasma stability
[7] = target: A. baumannii FabI (Acinetobacter baumannii, UniProt D0CAD5); assay: biochemical
Method: Mode of Action. To probe the effects of varying ring systems and amine placement on FabI target engagement, the apparent inhibition constants (Ki^app) for select compounds were determined using purified FabI. The goal of these studies was two-fold, to comparatively assess fabimycin, Debio-1452-NH3, and Debio-1452, and to also assess differential activity against the E. coli and A. baumannii versions of FabI. FabI from E. coli and A. baumannii were recombinantly expressed and purified, and the ability for each compound to inhibit the activity of these enzymes was evaluated using a standard FabI enzyme assay.
In vitro FabI inhibition assay. NADH (Sigma-Aldrich, Cat# N8129) and crotonoyl-CoA (Sigma-Aldrich, Cat# 28007) were both diluted into activity buffer [100 mM potassium glutamate (pH 7.8)], and working solution was dispensed into two columns of round-bottom 96-well plate (330 μL per well). Inhibitors, dissolved in DMSO at 200× final concentration, were added to each well via multichannel pipette (2.48 μL per well). After thorough mixing, this mixture was transferred to UV-transparent plate (UV-STAR half-area 96-well plate, Greiner Bio-One, Cat#675801, 100 μL per well, three technical replicates per inhibitor concentration). Plate was placed in plate-reader (SpectraMax 190, Molecular Devices) under temperature control (25° C.), and temperature was allowed to equilibrate. Fresh aliquot of enzyme from −80° C. was thawed on ice and diluted in activity buffer. Enzyme working solution was added to plate (50 μL per well, 20 nM enzyme final). After shaking for 5 s, reaction progress was monitored by absorbance at 340 nm every 15 s for 90 min. Linear portion of reaction progress curve was fit using plate-reader software (SoftMax Pro 7.0). Percent activity was calculated relative to DMSO-only and no-enzyme controls in each plate. Percent activity curves were fit to Morrison's quadratic using Graphpad Prism 6.0 to obtain apparent Ki.

[8] = Plasma protein binding
[9] = test system: A. baumannii AR 0033; assay: microbe, parasite or virus in culture; format: cell-based; conditions: Acinetobacter baumannii, AR0033, read-out: MIC A. baumannii AR 0033, clinical isolate
Method in brief: (§1)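 Bacteria were grown in cation-adjusted Mueller-Hinton broth, and susceptibility was determined by CLSI broth micro-dilution, with each test run in biological triplicate.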

[10] = test system: K. pneumoniae AR 0066; assay: microbe, parasite or virus in culture; format: cell-based; conditions: Klebsiella pneumoniae, AR0066, read-out: MIC K. pneumoniae AR 0066, clinical isolate
Method in brief: as §1

[11] = test system: E. coli AR 0085; assay: microbe, parasite or virus in culture; format: cell-based; conditions: Escherichia coli, AR0085, read-out: MIC E. coli AR 0085, clinical isolate
Method in brief: as §1

[12] = test system: A. baumannii AR 0299; assay: microbe, parasite or virus in culture; format: cell-based; conditions: Acinetobacter baumannii, AR0299, read-out: MIC A. baumannii AR 0299, clinical isolate
Method in brief: as §1

[13] = test system: K. pneumoniae AR 0113; assay: microbe, parasite or virus in culture; format: cell-based; conditions: Klebsiella pneumoniae, AR0113, read-out: MIC K. pneumoniae AR 0113, clinical isolate
Method in brief: as §1

[14] = test system: A. baumannii AR 0313; assay: microbe, parasite or virus in culture; format: cell-based; conditions: Acinetobacter baumannii, AR0313, read-out: MIC A. baumannii AR 0313, clinical isolate
Method in brief: as §1

[15] = test system: K. pneumoniae AR 0560; assay: microbe, parasite or virus in culture; format: cell-based; conditions: Klebsiella pneumoniae, AR0560, read-out: MIC K. pneumoniae AR 0560, clinical isolate
Method in brief: as §1

[16] = test system: E. coli AR 0048; assay: microbe, parasite or virus in culture; format: cell-based; conditions: Escherichia coli, AR0048, read-out: MIC E. coli AR 0048, clinical isolate
Method in brief: as §1

[17] = test system: A. baumannii AR 0273; assay: microbe, parasite or virus in culture; format: cell-based; conditions: Acinetobacter baumannii, AR0273, read-out: MIC A. baumannii AR 0273, clinical isolate
Method in brief: as §1

[18] = test system: E. coli MG1655 FabI mutant; assay: MIC against fabimycin-resistant E. coli MG1655 colonies (FabI mutants); format: cell-based; conditions: Escherichia coli
Method: Selection of resistant mutants. Resistant mutants were selected via the large inoculum method. Briefly, E. coli MG1655 (1.8×10^9 CFU) were plated on 100 mm plates of LB agar containing 64, 32, and 16 μg/mL Debio-1452-NH3. […] Resistant colonies were confirmed by streaking on selective media with the same concentration of Debio-1452-NH3.

Sequence of A. baumannii FabI (D0CAD5 1-288): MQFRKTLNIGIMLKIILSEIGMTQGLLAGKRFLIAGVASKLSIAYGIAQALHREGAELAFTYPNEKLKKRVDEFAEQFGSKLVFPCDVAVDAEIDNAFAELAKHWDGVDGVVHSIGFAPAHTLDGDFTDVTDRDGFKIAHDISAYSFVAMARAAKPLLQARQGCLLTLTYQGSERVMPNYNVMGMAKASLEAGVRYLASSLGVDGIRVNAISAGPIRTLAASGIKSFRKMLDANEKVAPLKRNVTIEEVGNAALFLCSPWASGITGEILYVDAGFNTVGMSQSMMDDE

Cc1c(CN(C)C(=O)/C=C/c2cnc3c(c2)CC[C@H](N)C(=O)N3)oc2ccccc12 [(S)-11, (S,E)-3-(7-amino-8-oxo-6,7,8,9-tetrahydro-5H-pyrido[2,3-b]azepin-3-yl)-N-methyl-N-((3-methylbenzofuran-2-yl)methyl)acrylamide]
Hepatocyte stability, Rat [1]: 0.9 μL/min/million cells | AUClast ([2]; PLASMA, 75 mg/kg IV): 45400 ng·h/mL | CL ([2]; PLASMA, 75 mg/kg IV): 26.9 mL/min/kg | Cmax ([2]; PLASMA, 75 mg/kg IV): 34600 ng/mL | AUClast ([2]; PLASMA, 100 mg/kg IV): 69800 ng·h/mL | CL ([2]; PLASMA, 100 mg/kg IV): 23.5 mL/min/kg | Cmax ([2]; PLASMA, 100 mg/kg IV): 47300 ng/mL | AUClast ([2]; THIGH, 75 mg/kg IV): 65200 ng·h/mL | CL ([2]; THIGH, 75 mg/kg IV): 18.9 mL/min/kg | Cmax ([2]; THIGH, 75 mg/kg IV): 33.0 µg/g | AUClast ([2]; THIGH, 100 mg/kg IV): 112000 ng·h/mL | CL ([2]; THIGH, 100 mg/kg IV): 14.7 mL/min/kg | Cmax ([2]; THIGH, 100 mg/kg IV): 60.2 µg/g | Hepatocyte stability, Mouse [3]: 6.1 μL/min/million cells | half-life [4]: 23.3 h | efflux ratio ([5]; MDCK-MDR1): 9.4 | Papp ([5]; MDCK-MDR1, MDR1-MDCK Permeability Papp A:B): 0.6 ×10⁻⁶ cm/s | Papp ([5]; MDCK-MDR1, MDR1-MDCK Permeability Papp B:A): 5.7 ×10⁻⁶ cm/s | stability in human plasma (in words) [6]: excellent stability | fold change in Ki^app relative to Debio-1452-NH3 ([7]; A. baumannii FabI, 3 vs. 114 nM): > 30 fold | Ki ([7]; purified FabI, apparent inhibition constant, read-out: A. baumannii FabI Ki^app): 3 nM | fold more potent than (R)-11 against A. baumannii FabI ([7]; relative to opposite enantiomer (R)-11): ~30 fold | Plasma protein binding, Mouse ([8]; Mouse): 96% | fraction unbound ([8]; mouse, plasma): 0.04 | MIC [9]: 8 µg/mL (≈ 19.8 µM) | MIC [10]: 4 µg/mL (≈ 9.89 µM) | MIC [11]: 1 µg/mL (≈ 2.47 µM) | MIC [12]: 2 µg/mL (≈ 4.94 µM) | MIC [13]: 4 µg/mL (≈ 9.89 µM) | MIC [14]: 4 µg/mL (≈ 9.89 µM) | MIC [15]: 4 µg/mL (≈ 9.89 µM) | MIC [16]: 2 µg/mL (≈ 4.94 µM) | MIC [17]: 4 µg/mL (≈ 9.89 µM) | MIC ([18]; MG1655, read-out: MIC, FabI mutant G148A): 64 to 128 µg/mL (≈ 158 to 316 µM) | MIC ([18]; MG1655, read-out: MIC, FabI mutant H209P): 61 to 128 µg/mL (≈ 151 to 316 µM)
